Series [1] deals with parental THP-1 cells. Kind of series: PMA-induced differentiation (adherence to culture dish) of parental THP-1 cells. The series is classed as cell-based, human. The conditions noted are these: incubated with PMA and inhibitor. The method, then:
(§1) Cells were treated overnight with 5ng/ml PMA and scored for differentiation (adherence to culture dish) and viability (trypan blue exclusion).
(§2) Parental and PPARδ anti-sense cells were incubated with PMA and an inhibitor of PKC activity (Bis) and two inhibitors of PLA2 activity (OBAA and mepacrine). These inhibitors were included at concentrations used in previous studies for specific inhibition.

Series [2] has as its system PPARδ anti-sense cell line. Kind of series: Viability (trypan blue exclusion) of PPARδ anti-sense cells treated with PMA. The conditions noted are these: incubated with PMA and inhibitor. The series is classed as cell-based, human. The method, then: as §1, §2
In a further series the test system is THP-1 cells. Kind of series: THP-1 foam cell model (PMA-activated cells, Oil Red O lipid staining). The series is classed as cell-based, human. The conditions noted are these: for lipid accumulation: PMA-treated THP-1 cells, Oil Red O staining; for foam cell formation: adherent PMA-treated THP-1 cells.
The test system of the next series is LNCaP. Kind of series: Prostate cell growth, colorimetric cell number assay. The series is classed as cell-based. The conditions noted are these: low concentrations, 7 days. The method, then:
(§3) Cell lines were plated at 2,500 cells per well in a 24-well plate and cultured in RPMI containing 5% dextran-coated charcoal-treated FCS. Increasing concentrations of Compound F or LG 100268 were included in the culture medium and the cultures were maintained for 7 days with changes of drugs and medium every 48 hours.

The subject of another series is PNT1A. The series is described as above. The settings on record: low concentrations, 7 days. In kind it is cell-based. On the procedure: as §3
The subject of series [3] is parental THP-1 cells. The method, then:
as §1, §2

Another series deals with ApoE. Put plainly: ApoE mRNA by TAQMAN in THP-1 cells. The series is classed as cell-based, human. The settings on record: parental THP-1 cells treated with PMA and linoleic acid. The method, then:
Total RNA was prepared from parental THP-1 cells treated with PMA (THP-1), or PMA and linoleic acid (THP-1+FA), and untreated PPARδ over-expressing cell line (DELTA). cDNA was prepared from these RNA samples and the cDNA was analysed for ApoE sequences using TAQMAN procedures. The result shown is relative expression normalised for β-actin expression and the error bars represent the standard deviation in duplicate samples.

Molecules are shown by their SMILES. “Also recorded” adds a separate entry of the source.

In the case of `CN(C)CCCn1cc(C2=C(c3c[nH]c4ccccc34)C(=O)NC2=O)c2ccccc21` [Bis, bisindoylmaleamide I], in the series with parental THP-1 cells [1], the “differentiation of parental THP-1 cells” value is “prevented”. Moreover, in series [2], the “PMA-induced "death" of the PPARδ anti-sense cell line” value was “did not block”.

As to `Cc1cc2c(cc1C1(c3ccc(C(=O)O)cn3)CC1)C(C)(C)CCC2(C)C` [LG 100268], in the series with THP-1 cells, the lipid accumulation entry is “Increased lipid accumulation” and the foam cell formation result is “promoted foam cell formation in co-operation with fatty acids”. Moreover, the growth stimulated entry in the series on LNCaP is reported as “also seen”. Further, the growth stimulated entry in the series on PNT1A is “also seen”.

Turning to `CCN(CC)CCCC(C)Nc1c2ccc(Cl)cc2nc2ccc(OC)cc12` (centres unmarked) [Mepacrine, 6-chloro-9-[(4-diethylamino)-1-methylbutyl]amino-2-methoxy-acridine], the “differentiation of parental THP-1 cells” value in the series with parental THP-1 cells [1] was “prevented”. In series [2], the “PMA-induced "death" of the PPARδ anti-sense cell line” value was “did not block”. Also, the “toxicity in the parental cells” value in the series on parental THP-1 cells [3] is “sign of toxicity”.

For the compound `CCCCCCCCCCCCCCCCCCc1ccc(C(=O)C=CC(=O)O)cc1` [OBAA, 3-(4-octadecyl)benzoylacrylic acid], in the series with parental THP-1 cells [1], the “differentiation of parental THP-1 cells” value is “prevented”. Besides, the “PMA-induced "death" of the PPARδ anti-sense cell line” value in series [2] is listed as “did not block”.

Take `Cc1cccc(Nc2cc(Cl)nc(SCC(=O)O)n2)c1C` [Wy 14,643]: the foam cell formation entry in the series with THP-1 cells is “no effect”.

As for `CCCCC/C=C\C/C=C\CCCCCCCC(=O)O` [linoleic acid], the lipid accumulation result in the series with THP-1 cells is reported as “Increased lipid accumulation; also recorded: leads to the accumulation of lipid droplets in the cytoplasm”. Also, the “apoE mRNA levels” value with ApoE is “reduced”.

These data come from EP1200114B1, “PPAR DELTA INHIBITORS FOR THE TREATMENT OF CARDIOVASCULAR DISEASES” (priority 1999, dated 2001).
